From patent publication US10738028B2, “Spiro three-membered ring, spiro five-membered ring peptide deformylase inhibitor and use thereof in antibacteria and anti-tumor” (priority 2016, dated 2020)

Legend:
Type in all cases: cell-based
[1] = test system: methicillin-sensitive Staphylococcus aureus (MSSA); experiment: MIC, two-fold agar dilution (CLSI), clinical isolates; conditions: for Anti-bacterial activity (MIC), strain MSSA 15-3: clinical isolate MSSA 15-3; for Anti-bacterial activity (MIC), strain MSSA 15-4: clinical isolate MSSA 15-4; for Anti-bacterial activity (MIC), strain MSSA 15-5: clinical isolate MSSA 15-5; for Anti-bacterial activity (MIC), strain MSSA 15-6: clinical isolate MSSA 15-6
In short: (§1)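 MIC values come from two-fold agar dilution run per CLSI antimicrobial susceptibility testing procedure.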

[2] = test system: methicillin-resistant Staphylococcus epidermidis (MRSE); experiment: as above; conditions: for Anti-bacterial activity (MIC), strain MRSE 15-1: clinical isolate MRSE 15-1; for Anti-bacterial activity (MIC), strain MRSE 15-2: clinical isolate MRSE 15-2; for Anti-bacterial activity (MIC), strain MRSE 15-3: clinical isolate MRSE 15-3; for Anti-bacterial activity (MIC), strain MRSE 15-7: clinical isolate MRSE 15-7
In short: as §1

[3] = test system: Enterococcus faecium (EFM); experiment: as above; conditions: for Anti-bacterial activity (MIC), strain EFM 15-1: clinical isolate EFM 15-1; for Anti-bacterial activity (MIC), strain EFM 15-2: clinical isolate EFM 15-2; for Anti-bacterial activity (MIC), strain EFM 15-3: clinical isolate EFM 15-3; for Anti-bacterial activity (MIC), strain EFM 15-4: clinical isolate EFM 15-4; for Anti-bacterial activity (MIC), strain EFM 15-5: clinical isolate EFM 15-5; for Anti-bacterial activity (MIC), strain EFM 15-6: clinical isolate EFM 15-6
In short: as §1

[4] = test system: methicillin-resistant Staphylococcus aureus (MRSA); experiment: as above; conditions: for Anti-bacterial activity (MIC), strain MRSA 15-1: clinical isolate MRSA 15-1; for Anti-bacterial activity (MIC), strain MRSA 15-3: clinical isolate MRSA 15-3; for Anti-bacterial activity (MIC), strain MRSA 15-4: clinical isolate MRSA 15-4
In short: as §1

[5] = test system: Escherichia coli (including ESBLs, non-ESBLs); experiment: as above; conditions: for Anti-bacterial activity (MIC), strain ECO+ 15-1: clinical isolate ECO+ 15-1; for Anti-bacterial activity (MIC), strain ECO+ 15-2: clinical isolate ECO+ 15-2; for Anti-bacterial activity (MIC), strain ECO+ 15-3: clinical isolate ECO+ 15-3; for Anti-bacterial activity (MIC), strain ECO+ 15-4: clinical isolate ECO+ 15-4; for Anti-bacterial activity (MIC), strain ECO− 15-1: clinical isolate ECO− 15-1; for Anti-bacterial activity (MIC), strain ECO− 15-2: clinical isolate ECO− 15-2; for Anti-bacterial activity (MIC), strain ECO− 15-3: clinical isolate ECO− 15-3; for Anti-bacterial activity (MIC), strain ECO− 15-4: clinical isolate ECO− 15-4
In short: as §1

[6] = test system: methicillin-sensitive Staphylococcus epidermidis (MSSE); experiment: as above; conditions: for Anti-bacterial activity (MIC), strain MSSE 15-3: clinical isolate MSSE 15-3; for Anti-bacterial activity (MIC), strain MSSE 15-4: clinical isolate MSSE 15-4; for Anti-bacterial activity (MIC), strain MSSE 15-5: clinical isolate MSSE 15-5; for Anti-bacterial activity (MIC), strain MSSE 15-6: clinical isolate MSSE 15-6
In short: as §1

[7] = test system: Streptococcus pneoumoniae (SPN); experiment: as above; conditions: for Anti-bacterial activity (MIC), strain SPN 16-2: clinical isolate SPN 16-2; for Anti-bacterial activity (MIC), strain SPN 16-4: clinical isolate SPN 16-4
In short: as §1

[8] = test system: Moraxella catarrhalis (BCA); experiment: as above; conditions: for Anti-bacterial activity (MIC), strain BCA 14-1: clinical isolate BCA 14-1; for Anti-bacterial activity (MIC), strain BCA 14-4: clinical isolate BCA 14-4; for Anti-bacterial activity (MIC), strain BCA 14-5: clinical isolate BCA 14-5; for Anti-bacterial activity (MIC), strain BCA 14-6: clinical isolate BCA 14-6; for Anti-bacterial activity (MIC), strain BCA 14-7: clinical isolate BCA 14-7; for Anti-bacterial activity (MIC), strain BCA 14-8: clinical isolate BCA 14-8; for Anti-bacterial activity (MIC), strain BCA 14-10: clinical isolate BCA 14-10
In short: as §1

[9] = test system: Enterococcus faecalis (EFA); experiment: as above; conditions: for Anti-bacterial activity (MIC), strain EFA 15-1: clinical isolate EFA 15-1; for Anti-bacterial activity (MIC), strain EFA 15-2: clinical isolate EFA 15-2; for Anti-bacterial activity (MIC), strain EFA 15-3: clinical isolate EFA 15-3; for Anti-bacterial activity (MIC), strain EFA 15-4: clinical isolate EFA 15-4; for Anti-bacterial activity (MIC), strain EFA 15-5: clinical isolate EFA 15-5; for Anti-bacterial activity (MIC), strain EFA 15-6: clinical isolate EFA 15-6; for Anti-bacterial activity (MIC), strain EFA 15-9: clinical isolate EFA 15-9
In short: as §1

[10] = test system: HCT-116 colorectal cancer cell line; experiment: CCK-8 proliferation inhibition; conditions: Homo sapiens, HCT-116, 72 h, concentration of 30 μM; 72 hours; CCK-8; read-out: HCT116 inhibition rate/%
In short: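 Cells seeded at 2000 cells/well, cultured overnight at 37 °C, 5% CO2, then exposed to compound (DMSO; control 1‰ DMSO) for 72 h in McCoy's 5A with 10% newborn bovine serum. Viability read with 1:10 diluted CCK-8.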

CCCC[C@H](CC(=O)NO)C(=O)N1CC2(CC2)C[C@H]1C(=O)Nc1ncccc1F [Example 49, (S)—N-(3-fluoropyridin-2-yl)-5-((R)-2-(2-(hydroxyamino)-2-oxoethyl)hexanoyl)-5-azaspiro[2.4]heptane-6-amide]
2 µg/mL: Anti-bacterial activity (MIC), strain EFM 15-5 [3] | Anti-bacterial activity (MIC), strain EFM 15-6 [3]
> 32 µg/mL: Anti-bacterial activity (MIC), strain MSSA 15-5 [1] | Anti-bacterial activity (MIC), strain MSSA 15-6 [1] | Anti-bacterial activity (MIC), strain MRSE 15-1 [2] | Anti-bacterial activity (MIC), strain MRSE 15-2 [2] | Anti-bacterial activity (MIC), strain MRSE 15-3 [2] | Anti-bacterial activity (MIC), strain MRSE 15-7 [2] | Anti-bacterial activity (MIC), strain EFM 15-1 [3] | Anti-bacterial activity (MIC), strain EFM 15-2 [3] | Anti-bacterial activity (MIC), strain EFM 15-3 [3] | Anti-bacterial activity (MIC), strain EFM 15-4 [3] | Anti-bacterial activity (MIC), strain ECO+ 15-1 [5] | Anti-bacterial activity (MIC), strain ECO+ 15-2 [5] | Anti-bacterial activity (MIC), strain ECO+ 15-3 [5] | Anti-bacterial activity (MIC), strain ECO+ 15-4 [5] | Anti-bacterial activity (MIC), strain ECO− 15-1 [5] | Anti-bacterial activity (MIC), strain ECO− 15-2 [5] | Anti-bacterial activity (MIC), strain ECO− 15-3 [5] | Anti-bacterial activity (MIC), strain ECO− 15-4 [5] | Anti-bacterial activity (MIC), strain MSSE 15-3 [6] | Anti-bacterial activity (MIC), strain MSSE 15-4 [6] | Anti-bacterial activity (MIC), strain MSSE 15-5 [6] | Anti-bacterial activity (MIC), strain MSSE 15-6 [6] | Anti-bacterial activity (MIC), strain BCA 14-1 [8] | Anti-bacterial activity (MIC), strain BCA 14-4 [8] | Anti-bacterial activity (MIC), strain BCA 14-6 [8] | Anti-bacterial activity (MIC), strain BCA 14-7 [8] | Anti-bacterial activity (MIC), strain BCA 14-8 [8] | Anti-bacterial activity (MIC), strain BCA 14-10 [8] | Anti-bacterial activity (MIC), strain EFA 15-1 [9] | Anti-bacterial activity (MIC), strain EFA 15-2 [9] | Anti-bacterial activity (MIC), strain EFA 15-3 [9] | Anti-bacterial activity (MIC), strain EFA 15-4 [9] | Anti-bacterial activity (MIC), strain EFA 15-5 [9] | Anti-bacterial activity (MIC), strain EFA 15-6 [9] | Anti-bacterial activity (MIC), strain EFA 15-9 [9]
8%: inhibition at 30 µM [10]
16 µg/mL: Anti-bacterial activity (MIC), strain MSSA 15-3 [1] | Anti-bacterial activity (MIC), strain MSSA 15-4 [1] | Anti-bacterial activity (MIC), strain MRSA 15-3 [4] | Anti-bacterial activity (MIC), strain MRSA 15-4 [4]
4 µg/mL: Anti-bacterial activity (MIC), strain SPN 16-2 [7] | Anti-bacterial activity (MIC), strain SPN 16-4 [7] | Anti-bacterial activity (MIC), strain BCA 14-5 [8]
8 µg/mL: Anti-bacterial activity (MIC), strain MRSA 15-1 [4]

CCCC[C@H](CC(=O)NO)C(=O)N1CC2(CC2)C[C@H]1C(=O)NC1CC1 [Example 50, (S)—N-cyclopropyl-5-((R)-2-(2-(hydroxyamino)-2-oxoethyl)hexanoyl)-5-azaspiro[2.4]heptane-6-carboxamide]
-11%: inhibition at 30 µM [10]
> 32 µg/mL: Anti-bacterial activity (MIC), strain MSSA 15-3 [1] | Anti-bacterial activity (MIC), strain MSSA 15-4 [1] | Anti-bacterial activity (MIC), strain MSSA 15-5 [1] | Anti-bacterial activity (MIC), strain MSSA 15-6 [1] | Anti-bacterial activity (MIC), strain MRSE 15-1 [2] | Anti-bacterial activity (MIC), strain MRSE 15-2 [2] | Anti-bacterial activity (MIC), strain MRSE 15-3 [2] | Anti-bacterial activity (MIC), strain MRSE 15-7 [2] | Anti-bacterial activity (MIC), strain EFM 15-1 [3] | Anti-bacterial activity (MIC), strain EFM 15-2 [3] | Anti-bacterial activity (MIC), strain EFM 15-3 [3] | Anti-bacterial activity (MIC), strain EFM 15-4 [3] | Anti-bacterial activity (MIC), strain EFM 15-5 [3] | Anti-bacterial activity (MIC), strain EFM 15-6 [3] | Anti-bacterial activity (MIC), strain MRSA 15-2 ([4]; clinical isolate MRSA 15-2) | Anti-bacterial activity (MIC), strain MRSA 15-3 [4] | Anti-bacterial activity (MIC), strain MRSA 15-4 [4] | Anti-bacterial activity (MIC), strain ECO+ 15-1 [5] | Anti-bacterial activity (MIC), strain ECO+ 15-2 [5] | Anti-bacterial activity (MIC), strain ECO+ 15-3 [5] | Anti-bacterial activity (MIC), strain ECO+ 15-4 [5] | Anti-bacterial activity (MIC), strain ECO− 15-1 [5] | Anti-bacterial activity (MIC), strain ECO− 15-2 [5] | Anti-bacterial activity (MIC), strain ECO− 15-3 [5] | Anti-bacterial activity (MIC), strain ECO− 15-4 [5] | Anti-bacterial activity (MIC), strain MSSE 15-3 [6] | Anti-bacterial activity (MIC), strain MSSE 15-4 [6] | Anti-bacterial activity (MIC), strain MSSE 15-5 [6] | Anti-bacterial activity (MIC), strain MSSE 15-6 [6] | Anti-bacterial activity (MIC), strain SPN 16-2 [7] | Anti-bacterial activity (MIC), strain SPN 16-4 [7] | Anti-bacterial activity (MIC), strain BCA 14-1 [8] | Anti-bacterial activity (MIC), strain BCA 14-4 [8] | Anti-bacterial activity (MIC), strain BCA 14-5 [8] | Anti-bacterial activity (MIC), strain BCA 14-6 [8] | Anti-bacterial activity (MIC), strain BCA 14-7 [8] | Anti-bacterial activity (MIC), strain BCA 14-8 [8] | Anti-bacterial activity (MIC), strain BCA 14-10 [8] | Anti-bacterial activity (MIC), strain EFA 15-1 [9] | Anti-bacterial activity (MIC), strain EFA 15-2 [9] | Anti-bacterial activity (MIC), strain EFA 15-3 [9] | Anti-bacterial activity (MIC), strain EFA 15-4 [9] | Anti-bacterial activity (MIC), strain EFA 15-5 [9] | Anti-bacterial activity (MIC), strain EFA 15-6 [9] | Anti-bacterial activity (MIC), strain EFA 15-9 [9]
> 23 µg/mL: Anti-bacterial activity (MIC), strain MRSA 15-1 [4]
